ChEMBL document CHEMBL1201862, “PubChem BioAssay data set” (2004)
Activity calls are given as the source filed them.

Experiments:
SUMO E1/E2 = SUMO E1/E2 (Homo sapiens, UniProt P63279+Q9UBE0+Q9UBT2); test: SAR analysis of SUMOylation using HTRF in an in-Vitro dose response assay. [Related pubchem assays (depositor defined):AID2006, AID2011, AID2018, AID2069, AID2658]; format: functional
[1] = target: Lysine-specific demethylase 4C (Homo sapiens, UniProt Q9H3R0); test: GASC-1 (JMJD2C) histone demethylase inhibitors, dose response, biochemical, DELFIA europium, cherry-picked samples (AID 488835); format: functional
Lysine-specific demethylase 4C, sequence (Q9H3R0 whole entry): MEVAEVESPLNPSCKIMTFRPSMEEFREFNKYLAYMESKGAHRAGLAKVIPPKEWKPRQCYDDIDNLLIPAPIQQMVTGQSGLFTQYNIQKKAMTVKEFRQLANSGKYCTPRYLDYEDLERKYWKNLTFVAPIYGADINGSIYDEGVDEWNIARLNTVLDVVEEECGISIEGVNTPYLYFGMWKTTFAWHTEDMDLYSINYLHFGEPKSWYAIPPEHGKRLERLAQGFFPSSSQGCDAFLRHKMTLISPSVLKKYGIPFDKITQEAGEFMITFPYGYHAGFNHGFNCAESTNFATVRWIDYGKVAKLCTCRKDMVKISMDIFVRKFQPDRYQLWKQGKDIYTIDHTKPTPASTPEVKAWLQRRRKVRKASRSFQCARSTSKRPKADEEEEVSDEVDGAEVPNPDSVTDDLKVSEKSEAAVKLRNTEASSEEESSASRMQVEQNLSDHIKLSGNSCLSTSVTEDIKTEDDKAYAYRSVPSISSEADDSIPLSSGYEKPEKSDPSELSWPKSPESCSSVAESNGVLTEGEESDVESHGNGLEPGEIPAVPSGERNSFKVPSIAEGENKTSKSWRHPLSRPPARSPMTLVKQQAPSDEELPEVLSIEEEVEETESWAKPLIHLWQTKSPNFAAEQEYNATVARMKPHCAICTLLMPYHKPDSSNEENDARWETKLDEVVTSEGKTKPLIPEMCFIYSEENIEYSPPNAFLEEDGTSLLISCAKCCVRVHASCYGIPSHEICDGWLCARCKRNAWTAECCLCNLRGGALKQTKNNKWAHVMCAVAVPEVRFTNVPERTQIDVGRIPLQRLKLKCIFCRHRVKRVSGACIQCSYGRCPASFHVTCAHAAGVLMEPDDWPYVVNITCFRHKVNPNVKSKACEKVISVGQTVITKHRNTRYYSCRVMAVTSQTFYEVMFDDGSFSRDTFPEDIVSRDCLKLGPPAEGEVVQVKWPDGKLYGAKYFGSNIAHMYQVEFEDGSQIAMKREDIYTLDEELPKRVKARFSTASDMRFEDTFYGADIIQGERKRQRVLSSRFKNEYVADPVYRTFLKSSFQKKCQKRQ

[2] = target: Lysine-specific demethylase 4A (Homo sapiens, UniProt O75164); test: JMJD2A histone demethylase inhibitors, dose response, selectivity assay for GASC-1 inhibitor project, biochemical, DELFIA europium, cherry-picked samples (AID 488840)
Lysine-specific demethylase 4A, sequence (O75164 whole entry): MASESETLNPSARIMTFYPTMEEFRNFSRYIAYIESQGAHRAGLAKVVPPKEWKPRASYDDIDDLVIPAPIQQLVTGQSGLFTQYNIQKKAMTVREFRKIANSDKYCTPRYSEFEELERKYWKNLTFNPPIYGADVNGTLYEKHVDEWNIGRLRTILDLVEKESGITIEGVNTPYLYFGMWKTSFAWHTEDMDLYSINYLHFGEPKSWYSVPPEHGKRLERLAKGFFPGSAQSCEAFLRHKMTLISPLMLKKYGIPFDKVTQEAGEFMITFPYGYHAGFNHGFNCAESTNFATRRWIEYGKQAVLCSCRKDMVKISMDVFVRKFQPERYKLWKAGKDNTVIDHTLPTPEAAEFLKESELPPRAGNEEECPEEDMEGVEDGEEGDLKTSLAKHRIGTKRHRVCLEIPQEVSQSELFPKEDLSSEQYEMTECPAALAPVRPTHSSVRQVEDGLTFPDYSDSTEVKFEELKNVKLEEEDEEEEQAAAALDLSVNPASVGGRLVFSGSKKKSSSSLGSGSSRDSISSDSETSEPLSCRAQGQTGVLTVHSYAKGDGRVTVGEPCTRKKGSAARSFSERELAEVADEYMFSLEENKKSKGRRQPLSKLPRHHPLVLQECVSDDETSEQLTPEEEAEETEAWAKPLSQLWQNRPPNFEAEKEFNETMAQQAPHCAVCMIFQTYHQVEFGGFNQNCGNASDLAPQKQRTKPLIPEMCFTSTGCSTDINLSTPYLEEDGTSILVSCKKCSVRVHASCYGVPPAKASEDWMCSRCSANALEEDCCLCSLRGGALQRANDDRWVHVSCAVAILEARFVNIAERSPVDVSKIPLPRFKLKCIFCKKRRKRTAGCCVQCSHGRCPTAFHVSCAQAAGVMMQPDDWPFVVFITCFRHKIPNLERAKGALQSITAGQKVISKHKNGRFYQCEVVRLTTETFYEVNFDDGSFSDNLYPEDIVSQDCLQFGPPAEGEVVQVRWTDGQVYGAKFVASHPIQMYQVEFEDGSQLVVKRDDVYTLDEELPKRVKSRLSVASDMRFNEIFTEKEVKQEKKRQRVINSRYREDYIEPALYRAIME

[3] = target: Tyrosyl-DNA phosphodiesterase 2 (Homo sapiens, UniProt O95551); test: human TDP2 enzyme inhibitors, dose response, biochemical, epi absorbance, IC50 (AID 743297)
Tyrosyl-DNA phosphodiesterase 2, sequence (O95551 whole entry): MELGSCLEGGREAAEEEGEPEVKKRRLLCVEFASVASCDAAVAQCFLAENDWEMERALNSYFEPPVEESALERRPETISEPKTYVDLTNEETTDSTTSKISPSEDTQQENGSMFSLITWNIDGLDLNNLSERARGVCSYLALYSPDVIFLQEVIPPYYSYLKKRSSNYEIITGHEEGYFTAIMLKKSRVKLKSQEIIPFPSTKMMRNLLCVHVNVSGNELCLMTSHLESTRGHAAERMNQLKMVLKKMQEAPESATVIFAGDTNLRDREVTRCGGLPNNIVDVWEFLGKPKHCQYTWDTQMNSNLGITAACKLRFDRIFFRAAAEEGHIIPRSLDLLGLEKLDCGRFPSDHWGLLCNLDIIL

[4] = target: DNA dC->dU-editing enzyme APOBEC-3G (Homo sapiens, UniProt Q9HC16); test: Dose Response confirmation of small molecule APOBEC3G DNA Deaminase Inhibitors via a fluorescence-based single-stranded DNA deaminase assay. [Related pubchem assays (depositor defined):AID493012, AID493028]; format: functional
DNA dC->dU-editing enzyme APOBEC-3G, sequence (Q9HC16 whole entry): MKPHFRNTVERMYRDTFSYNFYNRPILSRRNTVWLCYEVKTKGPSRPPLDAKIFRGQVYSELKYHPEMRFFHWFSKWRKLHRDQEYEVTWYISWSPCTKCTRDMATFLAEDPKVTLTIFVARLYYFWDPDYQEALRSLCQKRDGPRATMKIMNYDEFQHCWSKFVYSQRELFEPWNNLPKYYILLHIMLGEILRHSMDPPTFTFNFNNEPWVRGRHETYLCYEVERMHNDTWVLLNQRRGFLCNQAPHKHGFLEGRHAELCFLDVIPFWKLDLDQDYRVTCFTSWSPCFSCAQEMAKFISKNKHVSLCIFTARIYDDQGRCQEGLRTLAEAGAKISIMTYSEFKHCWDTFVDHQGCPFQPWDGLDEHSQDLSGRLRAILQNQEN

[5] = target: Sphingosine 1-phosphate receptor 3 (Homo sapiens, UniProt Q99500); test: Late stage counterscreen assay for S1P4 antagonists: Fluorescence dose response cell-based screening assay for antagonists of the Sphingosine 1-Phosphate Receptor 3 (S1P3). [Related pubchem assays (depositor defined):AID1510, AID1524, AID1692, AID1853, AID2332, AID489009, AID489017]; format: functional
Sphingosine 1-phosphate receptor 3, sequence (Q99500 whole entry): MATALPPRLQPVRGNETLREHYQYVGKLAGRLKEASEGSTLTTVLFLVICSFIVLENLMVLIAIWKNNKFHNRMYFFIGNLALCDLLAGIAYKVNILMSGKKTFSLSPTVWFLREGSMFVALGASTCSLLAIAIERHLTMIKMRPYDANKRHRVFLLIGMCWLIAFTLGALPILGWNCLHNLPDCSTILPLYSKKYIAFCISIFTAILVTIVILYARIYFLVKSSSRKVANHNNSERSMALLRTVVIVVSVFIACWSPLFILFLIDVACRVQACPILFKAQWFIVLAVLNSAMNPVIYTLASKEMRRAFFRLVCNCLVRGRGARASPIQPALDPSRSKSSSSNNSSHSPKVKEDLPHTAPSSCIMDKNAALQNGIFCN

[6] = target: Sphingosine 1-phosphate receptor 2 (Homo sapiens, UniProt O95136); test: Late stage counterscreen assay for S1P4 antagonists: Fluorescence dose response cell-based screening assay for antagonists of the Sphingosine 1-Phosphate Receptor 2 (S1P2). [Related pubchem assays (depositor defined):AID1510, AID1524, AID1692, AID1853, AID2332, AID489009, AID489017]; format: functional
Sphingosine 1-phosphate receptor 2, sequence (O95136 whole entry): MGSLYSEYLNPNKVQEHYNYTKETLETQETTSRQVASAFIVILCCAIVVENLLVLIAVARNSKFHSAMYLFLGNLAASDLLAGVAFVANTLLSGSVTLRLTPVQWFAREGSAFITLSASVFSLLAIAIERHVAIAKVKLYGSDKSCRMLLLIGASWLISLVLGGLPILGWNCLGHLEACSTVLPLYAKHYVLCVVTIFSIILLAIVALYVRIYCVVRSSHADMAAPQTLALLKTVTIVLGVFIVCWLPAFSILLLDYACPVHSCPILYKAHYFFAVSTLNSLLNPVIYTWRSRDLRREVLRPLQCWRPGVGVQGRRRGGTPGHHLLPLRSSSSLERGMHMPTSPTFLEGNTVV

[7] = target: Sphingosine 1-phosphate receptor 1 (Homo sapiens, UniProt P21453); test: Late stage counterscreen assay for S1P4 antagonists: Fluorescence dose response cell-based screening assay for antagonists of the Sphingosine 1-Phosphate Receptor 1 (S1P1). [Related pubchem assays (depositor defined):AID1510, AID1524, AID1692, AID1853, AID2332, AID489009, AID489017]; format: functional
Sphingosine 1-phosphate receptor 1, sequence (P21453 whole entry): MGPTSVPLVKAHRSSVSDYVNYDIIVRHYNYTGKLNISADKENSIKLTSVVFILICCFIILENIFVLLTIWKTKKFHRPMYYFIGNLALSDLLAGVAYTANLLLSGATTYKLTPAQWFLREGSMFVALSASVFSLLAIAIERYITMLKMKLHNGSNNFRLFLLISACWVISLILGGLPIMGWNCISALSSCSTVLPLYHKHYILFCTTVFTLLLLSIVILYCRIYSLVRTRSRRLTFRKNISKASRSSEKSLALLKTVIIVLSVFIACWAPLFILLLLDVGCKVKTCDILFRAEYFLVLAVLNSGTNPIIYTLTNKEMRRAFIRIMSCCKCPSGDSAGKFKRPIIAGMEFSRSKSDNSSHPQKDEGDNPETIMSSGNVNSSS

[8] = target: T1, Sphingosine 1-phosphate receptor 4 (Homo sapiens, UniProt O95977); test: S1P4 receptor antagonists, human, late-stage follow-up, cell-based, fluorescence, synthesized analogues (AID 2346); format: functional
T1 sequence (O95977 whole entry): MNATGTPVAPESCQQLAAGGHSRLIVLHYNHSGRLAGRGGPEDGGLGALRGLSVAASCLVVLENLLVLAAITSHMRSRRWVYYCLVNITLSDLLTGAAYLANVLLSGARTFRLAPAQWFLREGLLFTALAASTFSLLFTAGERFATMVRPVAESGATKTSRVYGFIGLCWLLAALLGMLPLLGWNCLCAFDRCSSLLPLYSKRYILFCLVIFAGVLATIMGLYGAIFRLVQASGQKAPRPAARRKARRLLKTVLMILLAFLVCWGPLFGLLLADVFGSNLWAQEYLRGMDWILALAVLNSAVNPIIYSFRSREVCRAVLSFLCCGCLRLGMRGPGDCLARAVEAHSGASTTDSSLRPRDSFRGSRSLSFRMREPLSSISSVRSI

[9] = target: Sphingosine 1-phosphate receptor 5 (Homo sapiens, UniProt Q9H228); test: Late stage counterscreen assay for S1P4 antagonists: Fluorescence dose response cell-based screening assay for antagonists of the Sphingosine 1-Phosphate Receptor 5 (S1P5). [Related pubchem assays (depositor defined):AID1510, AID1524, AID1692, AID1853, AID2332, AID489009, AID489017]; format: functional
Sphingosine 1-phosphate receptor 5, sequence (Q9H228 whole entry): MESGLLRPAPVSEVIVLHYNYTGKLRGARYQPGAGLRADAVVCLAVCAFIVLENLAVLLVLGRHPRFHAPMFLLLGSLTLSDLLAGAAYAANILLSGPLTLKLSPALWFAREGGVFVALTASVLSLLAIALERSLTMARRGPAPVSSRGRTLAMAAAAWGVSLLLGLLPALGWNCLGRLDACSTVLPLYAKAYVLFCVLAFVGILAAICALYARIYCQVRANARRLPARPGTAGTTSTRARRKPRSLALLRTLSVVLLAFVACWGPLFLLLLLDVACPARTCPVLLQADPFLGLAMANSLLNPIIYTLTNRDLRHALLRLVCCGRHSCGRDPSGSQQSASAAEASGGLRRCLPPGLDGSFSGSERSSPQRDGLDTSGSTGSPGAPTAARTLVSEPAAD

[10] = control 3'UTR Renilla luciferase suppression, dose response, counter-screen for Shn3 inhibitor project, cell-based, Clone20-Shn3RL, cherry-picked (AID 624133); format: functional
[11] = insulin promoter down-regulators in MIN6 cells, imaging, high-content screening, mouse beta cells (AID 1628); format: functional
[12] = Shn3 3'UTR reporter inhibitors, dose response, cell-based, Clone20 osteoblasts, firefly luciferase, cherry-picked (AID 624132); format: functional;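 further: firefly luciferase luminescence from reporter carrying the Shn3 3'UTR in osteoblasts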
[13] = HepG2 cell cytotoxicity, dose response, cytotoxicity control for Shn3 inhibitor project, CellTiter-Glo, cherry-picked (AID 624134); format: functional, cell-based
[14] = cytotoxicity in MIN6 insulinoma cells, dose response, cytotoxicity control, cell-based, mouse insulinoma (AID 2122); format: functional;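 further: confirmatory high-throughput counterscreen run to flag cytotoxic compounds; mouse MIN-6 beta cells carrying an insulin promoter eGFP reporter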
Phosphomannomutase 2 = Phosphomannomutase 2 (Homo sapiens, UniProt O15305); test: Counter screen SAR assay for PMM2 inhibitors via a fluorescence intensity assay. [Related pubchem assays (depositor defined):AID1545, AID1574]
[15] = target: T2, Mannose-6-phosphate isomerase (Homo sapiens, UniProt P34949); test: Confirmation of compounds inhibiting phosphomannose isomerase (PMI) via a fluorescence intensity assay using a high concentration of mannose 6-phosphate. [Related pubchem assays (depositor defined):AID1209, AID1220, AID1545, AID1553, AID1620]
T2 sequence (P34949 whole entry): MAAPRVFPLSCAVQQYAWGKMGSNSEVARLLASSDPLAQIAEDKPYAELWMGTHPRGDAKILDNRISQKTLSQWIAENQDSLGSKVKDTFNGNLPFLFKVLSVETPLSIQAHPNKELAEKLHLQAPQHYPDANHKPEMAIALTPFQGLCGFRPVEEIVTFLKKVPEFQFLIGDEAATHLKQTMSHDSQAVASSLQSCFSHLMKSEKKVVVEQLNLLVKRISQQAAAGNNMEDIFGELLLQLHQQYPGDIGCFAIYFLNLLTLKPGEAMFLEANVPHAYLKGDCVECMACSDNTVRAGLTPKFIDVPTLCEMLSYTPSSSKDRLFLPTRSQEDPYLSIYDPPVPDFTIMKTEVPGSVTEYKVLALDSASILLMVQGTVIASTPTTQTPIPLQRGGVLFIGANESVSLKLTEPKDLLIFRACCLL

[16] = target: Phosphoethanolamine/phosphocholine phosphatase (Homo sapiens, UniProt Q8TCT1); test: SAR assay for compounds that inhibit PHOSPHO1. [Related pubchem assays (depositor defined):AID1545, AID1565, AID1574]
Phosphoethanolamine/phosphocholine phosphatase, sequence (Q8TCT1 whole entry): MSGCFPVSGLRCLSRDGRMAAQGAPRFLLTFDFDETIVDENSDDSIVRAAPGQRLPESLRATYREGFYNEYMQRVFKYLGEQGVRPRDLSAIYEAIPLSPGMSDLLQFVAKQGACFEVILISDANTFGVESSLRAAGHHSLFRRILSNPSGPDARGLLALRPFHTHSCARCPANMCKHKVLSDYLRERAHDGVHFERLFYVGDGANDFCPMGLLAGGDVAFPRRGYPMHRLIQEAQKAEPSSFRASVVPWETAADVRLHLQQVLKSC

[17] = target: T2, Mannose-6-phosphate isomerase; test: PMI enzyme inhibitors, confirmation, biochemical, fluorescence intensity (AID 1535)
Cytochrome P450 1A2 = target: T3, Cytochrome P450 1A2 (Homo sapiens, UniProt P05177);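 further: PubChem cytochrome P450 panel assay, CYP1A2 panel member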
T3 sequence (P05177 whole entry): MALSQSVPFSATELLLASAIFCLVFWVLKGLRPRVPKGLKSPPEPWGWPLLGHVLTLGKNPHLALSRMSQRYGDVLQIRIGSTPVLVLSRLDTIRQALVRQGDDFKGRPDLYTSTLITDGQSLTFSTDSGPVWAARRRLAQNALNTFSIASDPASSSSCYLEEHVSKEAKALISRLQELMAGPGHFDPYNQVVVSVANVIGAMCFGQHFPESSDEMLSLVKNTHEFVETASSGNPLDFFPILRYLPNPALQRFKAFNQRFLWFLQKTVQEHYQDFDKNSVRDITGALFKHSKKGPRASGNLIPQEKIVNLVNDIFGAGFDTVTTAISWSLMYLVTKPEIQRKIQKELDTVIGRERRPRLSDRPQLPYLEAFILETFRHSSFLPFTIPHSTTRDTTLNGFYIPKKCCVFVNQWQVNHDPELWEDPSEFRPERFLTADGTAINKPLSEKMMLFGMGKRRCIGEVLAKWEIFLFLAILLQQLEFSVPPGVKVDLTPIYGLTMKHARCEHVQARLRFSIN

CAAX prenyl protease 2 = target: T4, CAAX prenyl protease 2 (Saccharomyces cerevisiae S288c, UniProt Q03530); format: biochemical
T4 sequence (Q03530 whole entry): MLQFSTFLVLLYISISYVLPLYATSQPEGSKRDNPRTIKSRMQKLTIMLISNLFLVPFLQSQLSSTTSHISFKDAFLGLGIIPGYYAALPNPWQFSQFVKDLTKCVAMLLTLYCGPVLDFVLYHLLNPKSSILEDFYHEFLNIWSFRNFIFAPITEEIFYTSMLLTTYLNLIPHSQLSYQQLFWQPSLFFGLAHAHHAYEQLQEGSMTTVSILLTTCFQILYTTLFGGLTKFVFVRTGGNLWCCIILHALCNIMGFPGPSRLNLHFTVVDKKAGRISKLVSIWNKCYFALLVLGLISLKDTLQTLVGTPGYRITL

CAAX prenyl protease 1 = CAAX prenyl protease 1 (Saccharomyces cerevisiae S288c, UniProt P47154); test: Ste24 protease inhibitors, dose response, biochemical, S. cerevisiae, plate reader, cherry-pick (AID 488815)
Trypsin = Trypsin (Sus scrofa, UniProt P00761); test: porcine trypsin inhibitors, dose response, selectivity assay for Rce1 protease inhibitor project, biochemical, quenched peptide fluorescence, cherry-pick (AID 488789)
Trypsin, sequence (P00761 whole entry): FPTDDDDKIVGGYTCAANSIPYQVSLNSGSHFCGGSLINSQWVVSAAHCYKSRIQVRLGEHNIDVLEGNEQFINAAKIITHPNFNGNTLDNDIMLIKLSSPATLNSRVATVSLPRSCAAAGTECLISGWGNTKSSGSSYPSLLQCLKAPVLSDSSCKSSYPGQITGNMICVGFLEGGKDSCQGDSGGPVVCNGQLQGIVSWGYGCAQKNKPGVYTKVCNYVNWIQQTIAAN

For Sc1nnc(-c2cc(-c3ccccc3)[nH]n2)n1N=Cc1c(Cl)cccc1Cl, the IC50 (SUMO E1/E2) was 82 µM (active).
For O=C1NC(=O)C(Sc2ccccc2[N+](=O)[O-])C(=O)N1, the AC50 [1] was 1.23 µM (active), the AC50 [2] was 2.28 µM (active) and the IC50 [3] was 36.3 µM (inactive). For the same compound, the IC50 [4] was 52.7 µM (active).
In the case of CCOc1ccc(OC)cc1-c1ccc(C(=O)Nc2c(C)cccc2CC)o1, the IC50 [5] is reported as > 25 µM (inactive), the IC50 [6] is reported as > 25 µM (inactive) and the IC50 [7] is reported as > 25 µM (inactive). For the same compound, the IC50 [8] was 0.414 µM (active) and the IC50 [9] was 19.2 µM (inactive).
For COc1ccccc1NC(=O)Cc1nn(C)c(=O)c2ccccc12, the AC50 [10] was 2.05 µM (active), the IC50 [11] was 3.14 µM (active) and the AC50 [12] was 1.97 µM (active). For the same compound, the AC50 [13] was 58.6 µM (active) and the IC50 [14] was 2.11 µM (active).
For Cc1ccc(C)c(N2Cc3ccccc3C2=O)c1, the IC50 (Phosphomannomutase 2) was > 100 µM (inactive), the IC50 [15] was > 100 µM (inactive) and the IC50 [16] was > 100 µM (inactive). For the same compound, the IC50 [17] was > 100 µM (inactive).
With N#CC[N+]1(Cc2ccccn2)CCCC1.O=S(=O)([O-])c1ccccc1 the AC50 (Cytochrome P450 1A2) was “inactive”.
For COc1cccc2c(O)c(C(=O)O)cnc12, the AC50 (CAAX prenyl protease 2) was 36 µM (active), the AC50 (CAAX prenyl protease 1) was 6.84 µM (active) and the AC50 (Trypsin) was 64.1 µM (active).
